The values below come from PubChem BioAssay AID248 (DTP/NCI, 2004).

For this test, the system named is L1210 leukemia ip in BDF1 mice, survival T/C. The test is described as follows: NCI In Vivo Anticancer Drug Screen. Data for tumor model L1210 Leukemia (intraperitoneal) in B6D2F1 (BDF1) mice. The following applies: endpoint: mean survival time, higher = longer survival. The gist of the method:
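Tumor cells were implanted, animals were treated, and survival was followed. The result divides the treated measurement by the vehicle-control measurement.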

[1] abbreviates: dose: 25.0 mg/kg/injection, schedule: Q04DX002 (ip), vehicle: Klucel (hydroxypropylcellulose) (HPC).
Setting [2] is: dose: 50.0 mg/kg/injection, schedule: Q04DX002 (ip), vehicle: Klucel (hydroxypropylcellulose) (HPC).
Where [3] appears, read: dose: 100.0 mg/kg/injection, schedule: Q04DX002 (ip), vehicle: Klucel (hydroxypropylcellulose) (HPC).
Setting [4] is: dose: 200.0 mg/kg/injection, schedule: Q04DX002 (ip), vehicle: Klucel (hydroxypropylcellulose) (HPC).
Where [5] appears, read: dose: 400.0 mg/kg/injection, schedule: Q04DX002 (ip), vehicle: Klucel (hydroxypropylcellulose) (HPC).
The mark [6] stands for this setting: dose: 100.0 mg/kg/injection, schedule: Q01DX009 (ip), vehicle: Klucel (hydroxypropylcellulose) (HPC).
Where [7] appears, read: dose: 200.0 mg/kg/injection, schedule: Q01DX009 (ip), vehicle: Klucel (hydroxypropylcellulose) (HPC).
Where [8] appears, read: dose: 400.0 mg/kg/injection, schedule: Q01DX009 (ip), vehicle: Klucel (hydroxypropylcellulose) (HPC).
The mark [9] stands for this setting: dose: 100.0 mg/kg/injection, schedule: Q04DX003 (ip), vehicle: Klucel (hydroxypropylcellulose) (HPC).
Where [10] appears, read: dose: 100.0 mg/kg/injection, schedule: Q01DX009 (ip), vehicle: saline.
Setting [11] is: dose: 100.0 mg/kg/injection, schedule: Q04DX003 (ip), vehicle: saline.
Where [12] appears, read: dose: 200.0 mg/kg/injection, schedule: Q01DX009 (ip), vehicle: saline.
Where [13] appears, read: dose: 200.0 mg/kg/injection, schedule: Q04DX003 (ip), vehicle: saline.
[14] abbreviates: dose: 400.0 mg/kg/injection, schedule: Q01DX009 (ip), vehicle: saline.
The mark [15] stands for this setting: dose: 400.0 mg/kg/injection, schedule: Q04DX003 (ip), vehicle: saline.
[16] abbreviates: dose: 100.0 mg/kg/injection, schedule: Q04DX003 (ip), vehicle: saline with Tween-80.
Setting [17] is: dose: 200.0 mg/kg/injection, schedule: Q04DX003 (ip), vehicle: saline with Tween-80.
The mark [18] stands for this setting: dose: 400.0 mg/kg/injection, schedule: Q04DX003 (ip), vehicle: saline with Tween-80.
Where [19] appears, read: dose: 200.0 mg/kg/injection, schedule: Q04DX003 (ip), vehicle: Klucel (hydroxypropylcellulose) (HPC).
Where [20] appears, read: dose: 400.0 mg/kg/injection, schedule: Q04DX003 (ip), vehicle: Klucel (hydroxypropylcellulose) (HPC).
Setting [21] is: dose: 100.0 mg/kg/injection, schedule: Q01DX001 (ip), vehicle: saline.
The mark [22] stands for this setting: dose: 400.0 mg/kg/injection, schedule: Q01DX001 (ip), vehicle: saline.

The structures appear in SMILES notation. Several values for one entry are separate records, joined by “and”; a condition that tells them apart may be missing. Equal entries are not always repeated. Toxic doses and inconclusive results are not listed.

`O=C(O)CC1CCCCC1CC(=O)O` (centres undefined): the T/C under setting [1] was 101 % of control; the T/C under setting [2] was 98 % of control; the T/C under setting [3] is 92 % of control; the T/C under setting [4] was 95 % of control and 97 % of control; the T/C under setting [5] is 107 % of control.

Take `NC(=O)CNC(c1ccccc1)C(O)c1ccccc1` (centres undefined): the T/C by setting is: under setting [6], 96 % of control; under setting [3], 91 % of control; under setting [7], 98 % of control; under setting [4], 102 % of control; under setting [8], 93 % of control; under setting [5], 102 % of control.

Turning to `CC(=O)OC1C(CF)OC(n2cnc3c(Cl)ncnc32)C1OC(C)=O` (centres undefined), the T/C runs as follows: (dose: 100.0 mg/kg/injection, schedule: Q01DX005 (ip), vehicle: saline) 98 % of control; (dose: 200.0 mg/kg/injection, schedule: Q01DX005 (ip), vehicle: saline) 97 % of control.

Consider `CN(C)CCNc1ccc([N+](=O)[O-])c2sc3ccccc3c(=O)c12`, for which the T/C is 94 % of control and 98 % of control (dose: 5.3 mg/kg/injection, schedule: Q01DX Z (ip), vehicle: methylcellulose (MC)); 102 % of control (dose: 8.0 mg/kg/injection, schedule: Q01DX Z (ip), vehicle: carboxymethylcellulose (CMC)); 98 % of control and 106 % of control (dose: 8.0 mg/kg/injection, schedule: Q01DX Z (ip), vehicle: methylcellulose (MC)); 118 % of control (dose: 12.0 mg/kg/injection, schedule: Q01DX Z (ip), vehicle: carboxymethylcellulose (CMC)); 152 % of control (dose: 26.0 mg/kg/injection, schedule: Q01DX Z (ip), vehicle: carboxymethylcellulose (CMC)); 156 % of control (dose: 27.0 mg/kg/injection, schedule: Q01DX Z (ip), vehicle: carboxymethylcellulose (CMC)). For the same compound, the T/C reads like this: (dose: 27.0 mg/kg/injection, schedule: Q01DX Z (ip), vehicle: methylcellulose (MC)) 98 % of control and 156 % of control and 216 % of control; (dose: 40.0 mg/kg/injection, schedule: Q01DX Z (ip), vehicle: carboxymethylcellulose (CMC)) 172 % of control; (dose: 40.0 mg/kg/injection, schedule: Q01DX Z (ip), vehicle: methylcellulose (MC)) 111 % of control.

As to `C=CCc1c[nH]c(=O)[nH]c1=O.[Hg]`, the T/C by setting is: (dose: 12.5 mg/kg/injection, schedule: Q01DX009 (ip), vehicle: Klucel (hydroxypropylcellulose) (HPC)) 93 % of control; (dose: 25.0 mg/kg/injection, schedule: Q01DX009 (ip), vehicle: Klucel (hydroxypropylcellulose) (HPC)) 98 % of control; (dose: 25.0 mg/kg/injection, schedule: Q04DX003 (ip), vehicle: Klucel (hydroxypropylcellulose) (HPC)) 92 % of control; (dose: 50.0 mg/kg/injection, schedule: Q04DX003 (ip), vehicle: Klucel (hydroxypropylcellulose) (HPC)) 89 % of control; under setting [9], 97 % of control.

For the compound `Nc1nc2ncc(CNc3ccc(C(=O)NC(CCC(=O)O)C(=O)O)cc3)nc2c(=O)n1N` (centres undefined), the T/C (dose: 100.0 mg/kg/injection, schedule: Q01DX001 (ip), vehicle: Klucel (hydroxypropylcellulose) (HPC)) was 98 % of control; the T/C (dose: 200.0 mg/kg/injection, schedule: Q01DX001 (ip), vehicle: Klucel (hydroxypropylcellulose) (HPC)) is 101 % of control; the T/C (dose: 400.0 mg/kg/injection, schedule: Q01DX001 (ip), vehicle: Klucel (hydroxypropylcellulose) (HPC)) was 98 % of control.

Turning to `C[Si](C)(C)Cc1ccc(Cl)cc1`, the T/C by setting is: (dose: 111.0 mg/kg/injection, schedule: Q01DX Z (ip), vehicle: saline) 104 % of control; (dose: 166.0 mg/kg/injection, schedule: Q01DX Z (ip), vehicle: saline) 91 % of control; (dose: 250.0 mg/kg/injection, schedule: Q01DX Z (ip), vehicle: saline) 98 % of control.

As for `C[C@]12CC[C@@H]3c4ccc(O)cc4CC[C@H]3[C@@H]1CCC(=O)O2`, the T/C is, setting by setting: under setting [10], 97 % of control; under setting [11], 97 % of control; under setting [12], 95 % of control; under setting [13], 90 % of control; under setting [14], 95 % of control; under setting [15], 100 % of control.

As for `S=C(S)NCCNC(=S)S`, the T/C was 93 % of control under setting [16]; 95 % of control under setting [11]; 90 % of control under setting [17]; 97 % of control under setting [13]; 87 % of control under setting [18]; 101 % of control under setting [15].

In the case of `CCCCNC(=O)c1ccccc1N`, the T/C reads like this: (dose: 50.0 mg/kg/injection, schedule: Q04DX003 (ip), vehicle: other) 103 % of control; (dose: 100.0 mg/kg/injection, schedule: Q04DX003 (ip), vehicle: other) 95 % of control and 101 % of control; (dose: 200.0 mg/kg/injection, schedule: Q04DX003 (ip), vehicle: other) 92 % of control; (dose: 400.0 mg/kg/injection, schedule: Q04DX003 (ip), vehicle: other) 90 % of control.

As for `COc1ccc(NC(=O)Nc2ccc(F)cc2)c(OC)c1`, the T/C runs as follows: under setting [6], 91 % of control; under setting [9], 100 % of control; under setting [7], 100 % of control; under setting [19], 91 % of control; under setting [8], 96 % of control; under setting [20], 100 % of control.

Regarding `COC(=O)C(CCC(=O)CN1C(=O)c2ccccc2C1=O)N1C(=O)c2ccccc2C1=O` (centres undefined), the T/C was 101 % of control under setting [16], 99 % of control under setting [17] and 87 % of control under setting [18].

Take `O=C(c1ccc(Br)cc1)C1C(c2ccccc2)N1C1CCCCC1` (centres undefined): the T/C is, setting by setting: under setting [9], 98 % of control; under setting [19], 96 % of control; under setting [20], 93 % of control.

`O=C1c2ccccc2C(O)N1c1ccccc1` (centres undefined): the T/C under setting [21] is 86 % of control and the T/C under setting [22] is 104 % of control.

For the compound `NC(N)=NS(=O)(=O)c1ccc(N)cc1`, the T/C runs as follows: (dose: 100.0 mg/kg/injection, schedule: Q01DX009 (ip), vehicle: saline with Tween-80) 98 % of control; (dose: 200.0 mg/kg/injection, schedule: Q01DX009 (ip), vehicle: saline with Tween-80) 95 % of control; (dose: 400.0 mg/kg/injection, schedule: Q01DX009 (ip), vehicle: saline with Tween-80) 91 % of control.

For the compound `Cn1ncc(C(N)=O)c1N`, the T/C is 100 % of control under setting [10]; 87 % of control (dose: 100.0 mg/kg/injection, schedule: Q04DX002 (ip), vehicle: saline); 103 % of control under setting [12]; 87 % of control (dose: 200.0 mg/kg/injection, schedule: Q04DX002 (ip), vehicle: saline); 96 % of control under setting [14]; 90 % of control (dose: 400.0 mg/kg/injection, schedule: Q04DX002 (ip), vehicle: saline).

With `BrC(Br)c1cnc2ccccc2n1`, the T/C (dose: 50.0 mg/kg/injection, schedule: Q01DX009 (ip), vehicle: Klucel (hydroxypropylcellulose) (HPC)) was 107 % of control; the T/C under setting [6] is 92 % of control; the T/C under setting [7] was 101 % of control.

As to `CC(=O)Oc1ccc([N+](=O)[O-])cc1`, the T/C runs as follows: under setting [1], 102 % of control; under setting [2], 89 % of control; under setting [3], 90 % of control; under setting [4], 92 % of control and 96 % of control.

With `CC(=O)Nc1c(NN=C(C)C)[nH]c(=O)[nH]c1=O`, the T/C by setting is: (dose: 50.0 mg/kg/injection, schedule: Q01DX001 (ip), vehicle: saline) 98 % of control; under setting [21], 96 % of control; (dose: 200.0 mg/kg/injection, schedule: Q01DX001 (ip), vehicle: saline) 102 % of control; under setting [22], 98 % of control.

On to `CCCCCCCCCCNC(C)=O`, for which the T/C was 104 % of control under setting [6]; 109 % of control under setting [9]; 106 % of control under setting [7]; 96 % of control under setting [19]; 89 % of control under setting [8]; 102 % of control under setting [20].
